Assay results: patent US10570179B2, “Substituted urea depsipeptide analogs as activators of the CLPP endopeptidase” (priority 2016, dated 2020)
Values after ≈ are worked out from the molar mass of the structure shown. Where two headings read alike, the source gives them in different places. Numbered stars: 1 amine (or outer) side, 2 acyl side, 3 side chain; on linkers, the order of the positions; unused ones are H or OH. Bridge positions count the residues as written; N and C are the ends. Square brackets hold non-standard residues; d marks the D form. Peptide text beside a SMILES is read from it. * marks the point of attachment. Phe(3-Me) = Cc1cccc(C[C@H](N)C(=O)O)c1; Pro(4S-Me) = C[C@@H]1CN[C@H](C(=O)O)C1; Hyp = O=C(O)[C@@H]1C[C@@H](O)CN1; NH(3-Cl-phenyl) = Clc1cccc(N*)c1; NH(4-Et-phenyl) = CCc1ccc(N*)cc1; aThr = C[C@H](O)[C@H](N)C(=O)O; Pip = O=C(O)[C@@H]1CCCCN1; CO = O=C([*:1])[*:2]

How the values were obtained:
S. aureus ΔClpP = assay: Minimal inhibitory concentration, microbroth dilution; type: cell-based, Staphylococcus aureus; details: MIC; ClpP inactivated
Procedure: (§1) Minimal inhibitory concentrations (“MICs”) were determined using the microbroth dilution method according to Clinical Laboratory Standards Institute (CLSI; National, C.F. C. L. S., Methods for Dilution Antimicrobial Susceptibility Tests for Bacteria Grow aerobically-Seventh Edition: Approved Standard M7-A7, CLSI, Wayne, Pa., USA, 2008) and were read by visual inspection. Two fold serial dilutions of test compound in 100 μL of the appropriate broth media were first prepared in 96-well round bottom microtiter plates (Nalgene Nunc International, Rochester, N.Y., USA). An equivalent volume (100 μL) of bacterial broth inocula containing approximately 10^5 bacterial cfu/mL was added to each well to give final concentrations of test compound starting at 200 μM. The plates were then incubated aerobically at 37° C. All strains were incubated overnight. After incubations, in all cases the MIC was recorded as the lowest concentration of drug that prevented bacterial growth. The bacterial strains for which MIC was determined as described in Table 4.

S. aureus USA 300 = assay: as above; type: cell-based; details: Staphylococcus aureus
Procedure: as §1

MRSA NRS70 = assay: as above; type: cell-based; details: Staphylococcus aureus
Procedure: as §1

E. faecails = assay: as above; type: cell-based; details: Enterococcus faecalis
Procedure: as §1

S. aureus ATCC 29213 = assay: as above; type: cell-based; details: Staphylococcus aureus
Procedure: as §1

S. aureus ClpP (Sa-ClpP) = molecular target: T1, S. aureus ClpP (Sa-ClpP) (Staphylococcus aureus, UniProt Q2G036); assay: Casein-BODIPY digestion assay (ClpP activation); type: biochemical
T1 construct: made in house; host or cells: E. coli BL21 (DE3)
T1 sequence (Q2G036 whole entry): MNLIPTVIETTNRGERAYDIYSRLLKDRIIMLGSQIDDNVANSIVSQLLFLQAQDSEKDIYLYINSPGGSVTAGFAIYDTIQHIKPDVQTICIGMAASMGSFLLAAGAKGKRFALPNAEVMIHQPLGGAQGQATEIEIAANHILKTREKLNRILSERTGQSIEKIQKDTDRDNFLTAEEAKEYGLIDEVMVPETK
Procedure: The compounds were assayed in a casein digestion assay in order to determine their effect on ClpP activation. Briefly, the assay was carried out using S. aureus ClpP (“Sa-ClpP”) overexpressed in E. coli BL21 (DE3) and purified in a two-step process. Purity of the protein was assessed through SDS PAGE analysis. EC50 evaluations were conducted in triplicate in a 20 μl assay format using a method adapted from Maurizi et al. (Methods Enzymol. (1994) 244:314-331). Each well contained 10 μM saClpP, 25 μg/ml BODIPY FL casein (Invitrogen Corporation, San Diego, Calif.), and test compound in concentrations ranging between 0-1000 μM in assay buffer (50 mM Tris pH 8, 200 mM KCl, and 1 mM TCEP). The reaction took place at 37° C. Fluorescence (excitation 485 nm; emission 528 nm) was measured in five minute intervals over a 45 min period using a BioTek HT fluorescence microplate reader (BioTek Instruments, Inc., Winooski, Vt.). Velocity of each reaction was calculated and data was fit to a dose response curve using GraphPad Prism® software (GraphPad Software, Inc., La Jolla, Calif.). EC50 is the effective concentration of compound which causes 50% activation of S. aureus ClpP in the foregoing BODIPY FL casein assay.
Alternatively, the assay was carried out using EnzCheck Protease Assay (Molecular Probes, Catalog # E6638). The assay was performed in black 384 well, flat bottom, low volume plates (Greiner Bio-One, Monroe, N.C., catalog #784076). 10 μL of Tris.HCl buffer, pH 8.0 with 0.01% Triton X-100 was pipetted into each well using a Well-Mate (Thermo Scientific, Waltham, Mass.). 0.4 μL test compounds or controls (2% DMSO v/v) were added to each well using a Biomek FX liquid handling robot (Beckman Coulter, Indianapolis, Ind.). After addition of test compounds and controls, 10 μL of master mix containing 2 μM Sa-ClpP and 2 μM substrate (Bodipy-FL labeled casein) in Tris.HCl buffer, pH 8.0 with 0.01% (v/v) Triton X-100, was pipetted into each well. All assays were performed in triplicate, under linear velocity conditions. Increase in fluorescent signal following activation of Sa-ClpP by test compounds and controls was measured over time period of 30 mins using filters with excitation at 485±15 nm and emission at 520±25 nm on a PHERAstar FS Multilabel reader (BMG, Cary, N.C.). Instrument gains and enzyme linear velocity conditions were determined and validated using ADEP4, a known Sa-ClpP activator. Data analysis was done by measuring rate of casein degradation over time (slopes). Computed degradation rates (slopes) were normalized to positive (ADEP4) or negative (DMSO) controls. Using nonlinear regression curve fitting EC50 values and % activation were determined using the equation “log [agonist] vs. Response-variable slope (four parameters)-symmetrical” in the program Prism 6 (GraphPad Software, La Jolla, Calif. USA, www.graphpad.com).

[1] = USA300, read-out: Minimal Inhibitory Concentrations (μM) S. aureus USA 300, MIC
[2] = read-out: Minimal Inhibitory Concentrations (μM) MRSA NRS70, MIC
[3] = read-out: Minimal Inhibitory Concentrations (μM) E. faecails, MIC
[4] = ATCC29213, read-out: Minimal Inhibitory Concentrations (μM) S. aureus ATCC 29213, MIC

| SMILES | Minimal Inhibitory Concentrations (μM) S. aureus ΔClpP (S. aureus ΔClpP) | MIC (S. aureus USA 300; USA300, MIC, read-out: Minimal Inhibitory Concentrations (μM) S. aureus USA 300) | MIC (MRSA NRS70; MIC, read-out: Minimal Inhibitory Concentrations (μM) MRSA NRS70) | MIC (E. faecails; MIC, read-out: Minimal Inhibitory Concentrations (μM) E. faecails) | MIC (S. aureus ATCC 29213; ATCC29213, MIC, read-out: Minimal Inhibitory Concentrations (μM) S. aureus ATCC 29213) | EC50 (S. aureus ClpP (Sa-ClpP)) | MIC (S. aureus USA 300; [1]) | MIC (MRSA NRS70; [2]) | MIC (E. faecails; [3]) | MIC (S. aureus ATCC 29213; [4]) |
| --- | --- | --- | --- | --- | --- | --- | --- | --- | --- | --- |
| CCc1ccc(NC(=O)N[C@@H](Cc2cccc(C)c2)C(=O)N[C@@H]2C(=O)N3C[C@H](O)C[C@H]3C(=O)N3CCCC[C@H]3C(=O)N[C@@H](C)C(=O)N3CCC[C@H]3C(=O)O[C@H]2C)cc1 [Compound 58, (S)-2-(3-(4-ETHYLPHENYL)UREIDO)-N-((6S,8AS,14AS,16R,20S,21S,23AS)-16-HYDROXY-6,21-DIMETHYL-5,8,14,19,23-PENTAOXOOCTADECAHYDRO-1H,5H,14H,19H-PYRIDO[2,1-I]DIPYRROLO[2,1-C:2′,1′-L][1]OXA[4,7,10,13]TETRAAZACYCLOHEXADECIN-20-YL)-3-(M-TOLYL)PROPANAMIDE] ({NH(4-Et-phenyl)-CO}-[Phe(3-Me)][aThr][Hyp][Pip]AP; ester 2-C) | >20 µM | 0.625 µM (≈ 0.501 µg/mL) | 0.625 µM (≈ 0.501 µg/mL) | 2.5 µM (≈ 2 µg/mL) | 2.5 µM (≈ 2 µg/mL) | 270 ± 100 nM |  |  |  |  |
| Cc1cccc(C[C@H](NC(=O)Nc2ccc(Cl)cc2)C(=O)N[C@H]2COC(=O)[C@@H]3C[C@@H](C)CN3C(=O)[C@H](C)NC(=O)[C@@H]3CCCCN3C(=O)[C@@H]3CCCN3C2=O)c1 [Compound 71, (S)-2-(3-(4-CHLOROPHENYL)UREIDO)-N-((2R,6S,8AS,14AS,20S,23AS)-2,6-DIMETHYL-5,8,14,19,23-PENTAOXOOCTADECAHYDRO-1H,5H,14H,19H-PYRIDO[2,1-I]DIPYRROLO[2,1-C:2′,1′-L][1]OXA[4,7,10,13]TETRAAZACYCLOHEXADECIN-20-YL)-3-(M-TOLYL)PROPANAMIDE] | >20 µM |  |  |  |  | 250 ± 100 nM | 0.625 µM (≈ 0.495 µg/mL) | 0.313 µM (≈ 0.248 µg/mL) | 0.313 µM (≈ 0.248 µg/mL) | 0.625 µM (≈ 0.495 µg/mL) |
| Cc1cccc(C[C@H](NC(=O)Nc2cccc(Cl)c2)C(=O)N[C@@H]2C(=O)N3C[C@H](O)C[C@H]3C(=O)N3CCCC[C@H]3C(=O)N[C@@H](C)C(=O)N3C[C@@H](C)C[C@H]3C(=O)O[C@H]2C)c1 [Compound 67, (S)-2-(3-(3-CHLOROPHENYL)UREIDO)-N-((2S,6S,8AS,14AS,16R,20S,21S,23AS)-16-HYDROXY-2,6,21-TRIMETHYL-5,8,14,19,23-PENTAOXOOCTADECAHYDRO-1H,5H,14H,19H-PYRIDO[2,1-I]DIPYRROLO[2,1-C:2′,1′-L][1]OXA[4,7,10,13]TETRAAZACYCLOHEXADECIN-20-YL)-3-(M-TOLYL)PROPANAMIDE] ({NH(3-Cl-phenyl)-CO}-[Phe(3-Me)][aThr][Hyp][Pip]A[Pro(4S-Me)]; ester 2-C) | >20 µM |  |  |  |  | 440 ± 300 nM | 2.5 µM (≈ 2.06 µg/mL) | 2.5 µM (≈ 2.06 µg/mL) | 5 µM (≈ 4.11 µg/mL) | 2.5 µM (≈ 2.06 µg/mL) |
| Cc1cccc(C[C@H](NC(=O)Nc2cccc(Cl)c2)C(=O)N[C@@H]2C(=O)N3C[C@H](O)C[C@H]3C(=O)N3CCCC[C@H]3C(=O)N[C@@H](C)C(=O)N3CCC[C@H]3C(=O)O[C@H]2C)c1 [Compound 60, (S)-2-(3-(3-CHLOROPHENYL)UREIDO)-N-((6S,8AS,14AS,16R,20S,21S,23AS)-16-HYDROXY-6,21-DIMETHYL-5,8,14,19,23-PENTAOXOOCTADECAHYDRO-1H,5H,14H,19H-PYRIDO[2,1-I]DIPYRROLO[2,1-C:2′,1′-L][1]OXA[4,7,10,13]TETRAAZACYCLOHEXADECIN-20-YL)-3-(M-TOLYL)PROPANAMIDE] ({NH(3-Cl-phenyl)-CO}-[Phe(3-Me)][aThr][Hyp][Pip]AP; ester 2-C) |  |  |  |  |  | 1470 ± 1100 nM | 10 µM (≈ 8.08 µg/mL) | 5 µM (≈ 4.04 µg/mL) | > 20 µM | > 20 µM |
